Where two headings read alike, the source gives them in different places.
Key:
[1] = test system: Streptococcus mutans strain GS-5; experiment: Growth of S. mutans GS-5 in nutrient medium (Klett optical density, doubling time, final pH); format: cell-based; settings: 0.7% concentration; 37°C; columns 1-3 of Table I
Procedure: (§1) All compounds used in the test were in 0.7% concentration. The same concentrations were used to determine acid production in a salivary system. Streptococcus mutans strain GS-5, a human cariogenic strain, was used in all cases except the salivary test system in which the endogenous flora was used.
Klett tubes containing a tryticase-soy-yeast- cysteine nutrient and fitted with septum caps werg flushed with nitrogen gas and preincubated 30 minutes at 37°C using standard sterile technicuies, then in- noculated with a 2% innoculum of a suspension of S. mutans GS-5 cells in phosphate buffer. These were then incubated at 37°C. Optical density was measured by Klett readings (red filter) at half hour intervals.
The first three columns in the table refer to effects of the compounds on the growth characteristics of a cariogenic strain of the bacteria Streptococcus mutans. Reduction of total growth (lowered final Klett), reduction of growth rate (increase in doubling time) and reduction of acid produced (increase in final pH) are the effects desired.

dextran-sucrase (DSU) = experiment: Dextran-sucrase (DSU) activity of S. mutans; format: cell-based, Streptococcus mutans; settings: 0.7% concentration; for dextran-sucrase (DSU) activity: columns 4-8 of Table I
From the text: as §1
The next six columns refer to certain effects on the metabolism of the bacteria. Columns 4-8 represent measures of the activity of an enzyme (or group of enzymes) called dextran-sucrase (DSU) which is one of the principle sources of the cariogenicity of this organism. DSU converts dietary sugar into polymers which are a major ingredient of cariogenic dental plaque. Such plaque is an accumulation of these polymers, playing an essential role in caries formation and periodontal disease. Therefore, a reduction in plaque formation by means of a reduction'in DSU activity is a desired effect. In particular, a reduction in "mean specific DSU activity" - that is, amount of activity per bacterial cell - is desired since that would imply a real effect on the organisms' metabolism instead of merely a reduction in the number of cells. […] Erythritol, however, is the best in the critical measure "DSU mean specific activity (column 8). In column 9, lactic acid production is measured. Lactic acid, produced by cariogenic bacteria in response to ingestion of a meal, can increase acidity enough to dissolve tooth mineral and initiate caries. Therefore, reduction in lactic acid production is desirable. […] Finally, in the last column (10) are measures of the effect on the pH of natural saliva. In this case, the natural mixed population of bacteria is used instead of a pure culture of one strain as in the previous columns. A positive number (pH increase, corresponding to reduced acidity) is the desired result.

[2] = test system: Streptococcus mutans strain GS-5; experiment: Lactic acid production (Sigma kit, NADH absorbance); format: cell-based; settings: 0.7% concentration; relative to "no compound" control; column 9 of Table I
Procedure: as §1
Lactic acid production was measured using the Sigma Kit for determination of lactic acid. This procedure measures the amount of lactic acid by the following reaction: [drawing 1] NAD is originally present-in excess and the increase absorbance of […] due to NADH formation becomes a measure of lactic acid originally present.
(§2) The next six columns refer to certain effects on the metabolism of the bacteria. Columns 4-8 represent measures of the activity of an enzyme (or group of enzymes) called dextran-sucrase (DSU) which is one of the principle sources of the cariogenicity of this organism. DSU converts dietary sugar into polymers which are a major ingredient of cariogenic dental plaque. Such plaque is an accumulation of these polymers, playing an essential role in caries formation and periodontal disease. Therefore, a reduction in plaque formation by means of a reduction'in DSU activity is a desired effect. […] In column 9, lactic acid production is measured. […]

endogenous flora = experiment: Salivary test system: pH change of pooled saliva; format: cell-based, human saliva; settings: final concentration 0.7%; anaerobic, 37°C, four hours; column 10 of Table I
Procedure: as §1
For the salivary test system, saliva was pooled from volunteers who had fasted three hours and the pH of the pooled saliva was noted. 4.95 ml of pool saliva was aseptically transferred to a series of sterile test tubes. […] of each compound were prepared and sterilized. 0.05 ml of each was aseptically added to the test tube of saliva to give a final concentration of 0.7%. The test tubes were incubated anaerobically ! at 37°C for four hours. The pH of each was then measured.
as §2, with “disease.” for “disease. Therefore, a reduction in plaque formation by means of a reduction'in DSU activity is a desired effect.”

[3] = cited from earlier work
[4] = humans; cited from earlier work
[5] = test system: enzymes responsible for dental caries formation; settings: cited from earlier work
[6] = cited from earlier work; remark: listed apart in the source
dental caries [7] = settings: cited from earlier work
dental caries [8] = settings: compared with mannitol or sorbitol; cited from earlier work
dental caries [9] = settings: in diet, man; cited from earlier work

| Structure (SMILES) | growth characteristics: total growth (final Klett), growth rate (doubling time), acid produced (final pH) [1] | DSU mean specific activity (dextran-sucrase (DSU); activity per bacterial cell, column 8 of Table I) | dextran-sucrase (DSU) activity (dextran-sucrase (DSU)) | lactic acid production [2] | effect on the pH of natural saliva (endogenous flora) | saturated solution in water [3] | metabolism after oral ingestion [4] | formation of enzymes responsible for dental caries formation [5] | diarrhea ([6]; rat, in vivo) | drinking water intake (dental caries [7]; rat, in vivo) | reducing the incidence of dental caries (dental caries [8]) | incidence of dental caries (dental caries [9]) | diarrhea ([6]; rats) | drinking water intake (dental caries [7]; rats) | preventing dental caries (dental caries [7]; rats) |
| --- | --- | --- | --- | --- | --- | --- | --- | --- | --- | --- | --- | --- | --- | --- | --- |
| OC[C@@H](O)[C@@H](O)CO [erythritol] | closely following | the best | superior to the other substances tested | only substance which reduced lactic acid | best substance in the test | about 38 % w/w | not significantly metabolized |  |  |  |  |  |  |  |  |
| OC[C@@H](O)[C@@H](O)[C@H](O)[C@H](O)CO [mannitol] |  |  |  |  |  |  |  | retarded |  |  |  |  |  |  |  |
| OC[C@@H](O)[C@@H](O)[C@H](O)[C@@H](O)CO [sorbitol] |  |  |  |  |  |  |  | retarded | caused diarrhea | increased drinking water intake |  |  |  |  |  |
| OC[C@@H](O)[C@H](O)[C@@H](O)CO [xylitol] | best results |  | superior to the other substances tested | superior to the other test substances | superior to the other test substances |  |  | retarded |  |  | appreciably more effective | dramatic reduction in the incidence of dental caries | caused diarrhea | increased drinking water intake | more effective than sorbitol |

Reference: patent EP0009325A1, “Erythritol cointaining anti-caries compositions” (PFIZER INC., priority 1978, dated 1980)
